Measured values taken from ChEMBL document CHEMBL1201862, “PubChem BioAssay data set” (2004).
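All cell lines were grown in 96-well plates and treated with compound for 48 hours. GI50 is the concentration that inhibits growth by half.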 Activity calls are given as the source filed them. No stated cut-off is given here; in the data, active = GI50 up to about 1.1 µM and inactive = higher.

Legend:
Assay in all cases: NCI-60 cell line screen, 48 h
A549 = system: A549
CCRF-CEM = system: CCRF-CEM
HL-60 = system: HL-60
HOP-62 = system: HOP-62
HOP-92 = system: HOP-92
K562 = system: K562
Malme-3M = system: Malme-3M
NCI-H23 = system: NCI-H23
OVCAR-4 = system: OVCAR-4
PC-3 = system: PC-3
RPMI-8226 = system: RPMI-8226
RXF 393 = system: RXF 393
SF-268 = system: SF-268
SF-539 = system: SF-539
SK-MEL-28 = system: SK-MEL-28
SK-MEL-2 = system: SK-MEL-2
SNB-75 = system: SNB-75
SW-620 = system: SW-620
TK-10 = system: TK-10
UO-31 = system: UO-31

SMILES: Cc1coc2c1C(OC(=O)C(C)C)C1(C)C(C)CCC(O)C1C2=O (stereo not given)
- GI50 (A549): > 100 µM (inactive)
- GI50 (CCRF-CEM): 57.4 µM (inactive)
- GI50 (HL-60): 46 µM (inactive)
- GI50 (HOP-62): > 100 µM (inactive)
- GI50 (HOP-92): > 100 µM (inactive)
- GI50 (K562): 54 µM (inactive)
- GI50 (Malme-3M): > 100 µM (inactive)
- GI50 (NCI-H23): > 100 µM (inactive)
- GI50 (OVCAR-4): > 100 µM (inactive)
- GI50 (PC-3): 97.9 µM (inactive)
- GI50 (RPMI-8226): 89.5 µM (inactive)
- GI50 (RXF 393): > 100 µM (inactive)
- GI50 (SF-268): > 100 µM (inactive)
- GI50 (SF-539): > 100 µM (inactive)
- GI50 (SK-MEL-28): > 100 µM (inactive)
- GI50 (SK-MEL-2): > 100 µM (inactive)
- GI50 (SNB-75): > 100 µM (inactive)
- GI50 (SW-620): > 100 µM (inactive)
- GI50 (TK-10): > 100 µM (inactive)
- GI50 (UO-31): 50.2 µM (inactive)

SMILES: C[C@@H]1C[C@@H]2OC(=O)[C@]3(C)[C@H]2[C@@H](OC3(C)O)[C@]2(C)C(=O)C=C[C@@H]12 (stereo not given in full) [TENULIN]
- GI50 (A549): > 100 µM (inactive)
- GI50 (CCRF-CEM): 4.68 µM (inactive)
- GI50 (HL-60): 3.48 µM (inactive)
- GI50 (HOP-62): 87.7 µM (inactive)
- GI50 (HOP-92): 17.5 µM (inactive)
- GI50 (K562): 0.0543 µM (active)
- GI50 (Malme-3M): 13.6 µM (inactive)
- GI50 (NCI-H23): 25.9 µM (inactive)
- GI50 (OVCAR-4): 10.8 µM (inactive)
- GI50 (PC-3): 87.9 µM (inactive)
- GI50 (RPMI-8226): 4.3 µM (inactive)
- GI50 (RXF 393): 18.7 µM (inactive)
- GI50 (SF-268): 31.3 µM (inactive)
- GI50 (SF-539): 32.1 µM (inactive)
- GI50 (SK-MEL-28): 18.3 µM (inactive)
- GI50 (SK-MEL-2): 19.8 µM (inactive)
- GI50 (SNB-75): > 100 µM (inactive)
- GI50 (SW-620): 16.9 µM (inactive)
- GI50 (TK-10): 18 µM (inactive)
- GI50 (UO-31): 40.8 µM (inactive)
